Where two headings read alike, the source gives them in different places.
Key:
[1] = test system: Herpes Simplex Virus type 1, McIntyre (HSV1); test: Viral Plaque Reduction Assay / inhibition of infection assay, HSV1 in Vero cells; format: cell-based; details: 10 μg/ml spinosad
[2] = test system: Herpes Simplex Virus type 2, Strain MS-HSV2; test: IC50 assay against HSV2 in Vero cells; format: cell-based; details: 50-100 infectious units of HSV2
[3] = test system: murine Leukemia Virus (ATCC VR-1445); test: Inhibition of murine Leukemia Virus in feline PG4 cells; format: cell-based; details: 10 μg/ml spinosad, virus load of 30 infectious units
[4] = test system: Respiratory Syncytial Virus Strain A2-RSV; format: cell-based; details: 9.5 μg/ml spinosad, virus load of 50-100 infectious units, HEp2 cells
[5] = test system: pancreatic tumor xenograph; test: Mouse pancreatic tumor xenograph assay; format: in vivo; details: for tumor volume on day1: baseline
[6] = test system: isolated mitochondria of H460 cells; test: Oxygen consumption in isolated mitochondria, Seahorse XF24; format: biochemical; details: 4° C. for three hours
[7] = test system: macrophage mice cell type J774; details: read-out: Cytotoxicity CC50; J774
[8] = test system: BxPC-3 Human pancreatic adenocarcinoma; details: for Cell Survival (% of Control; mean ± S.D.): 24-hour exposure, 24 h post end of exposure
[9] = test system: DU 145 Human prostatic carcinoma cells; details: for Cell Survival (% of Control; mean ± S.D.): 24-hour exposure, 24 h post end of exposure
[10] = test system: PC-3 Human prostatic adenocarcinoma cells; details: for Cell Survival (% of Control; mean ± S.D.): 24-hour exposure, 24 h post end of exposure
[11] = test system: MDA-MB-231 Human breast adenocarcinoma cells; details: for Cell Survival (% of Control; mean ± S.D.): 24-hour exposure, 24 h post end of exposure
[12] = test system: PC-3 Human prostatic adenocarcinoma cells; test: Cell proliferation assay, PC-3; details: 24 hours of exposure (control 3.22)
Description: (§1) Cell Proliferation assay: for each cell line, cell suspensions ranging in concentration of approximately 2-5×10^5 cells/mL of growth medium were prepared. 1 mL of each of these suspensions was aseptically transferred to a sterile tissue culture flask (12.5 or 25 cm^2) containing fresh growth medium. Three flasks (triplicate) were used for each group, and for each time point of viable cell number/mL measurement at 1, 3 and 5 days post-treatment (9 dishes per group in total). The cells were incubated and allowed to adhere to the bottom of the flasks and proliferate.
(§2) After approximately 24 hours of exposure to treatments, dosing media was replaced with fresh growth media and cells were returned to the incubator and allowed to proliferate.
(§3) Assessment of Cell Proliferation: For each cell line, measurement of viable cell number/mL was performed as already described above. This measurement was performed in triplicate from three flasks per group, at 1, 3 and 5 days post-removal of treatment.

[13] = test system: BxPC-3 Human pancreatic adenocarcinoma; test: Cell proliferation assay, BxPC-3; details: 24 hours of exposure (control 3.02)
Description: as §1, §2, §3

[14] = test system: DU 145 Human prostatic carcinoma cells; test: Cell proliferation assay, DU 145; details: for Cell Number Doubling Time: 24 hours of exposure (control 2.17)
Description: as §1, §2, §3

[15] = test system: MDA-MB-231 Human breast adenocarcinoma cells; test: Cell proliferation assay, MDA-MB-231; details: for Cell Number Doubling Time: 24 hours of exposure (control 3.11)
Description: as §1, §2, §3

[16] = test system: Leishmania donovati MON-2 promastigotes; test: In vitro test against Leishmania promastigotes; details: read-out: Promastigotes IC50; stationary-phase promastigotes, 26° C.
[17] = test system: BxPC-3, DU 145, PC-3 and MDA-MB-231; test: Cell proliferation assay, all cell lines tested; details: low dose level 5 μg/mL
Description: as §1, §2, §3

[18] = test system: Cytomegalovirus, Davis Strain-CMV; test: Inhibition of Cytomegalovirus in HS27 fibroblasts; details: 4.75 μg/ml spinosad, virus load of 50-100 infectious units, HS27 cells
[19] = test system: Plasmodium falciparum 3D7 rings and trophozoites; test: Susceptibility of different stages of P. falciparum; details: 3D7 parasites, 48 h, 1% initial parasitemia
Plasmodium vinckei = test: In vivo test against Plasmodium vinckei parasites in mice; details: BALB/c female mice, 25 mg/kg intraperitoneally daily for 6 consecutive days in DMSO; vs DMSO control; P=0.0085
[20] = test system: Leishmania donovati MON-2 amastigotes; test: In vitro test against Leishmania amastigotes in J774 macrophages; details: read-out: Amastigotes IC50; infected J774 macrophages
Plasmodium falciparum = test: ATP levels in the Plasmodium parasite, luciferin/luciferase assay
[21] = mouse code 3, total spinosad dosed 390 mg/kg i.p. over 20 days
[22] = mouse code 6, total spinosad dosed 360 mg/kg i.p. over 20 days
[23] = mouse code 9, total spinosad dosed 540 mg/kg i.p. over 20 days
[24] = mouse code 10, total spinosad dosed 540 mg/kg i.p. over 20 days
[25] = mouse code 12, total spinosad dosed 615 mg/kg i.p. over 20 days
[26] = mouse code 13, total spinosad dosed 585 mg/kg i.p. over 20 days
[27] = spinosad 10 μg/mL, succinate substrate
[28] = spinosad 20 μg/mL, succinate substrate
[29] = spinosad 40 μg/mL, succinate substrate
[30] = spinosad 80 μg/mL, succinate substrate
[31] = BxPC-3, 24 h post end of 24-hour exposure
[32] = DU 145, 24 h post end of 24-hour exposure
[33] = PC-3, 24 h post end of 24-hour exposure
[34] = MDA-MB-231, 24 h post end of 24-hour exposure

In the case of Spinosad, the “inhibition of approximately 20 infectious units of the HSV1 virus” value [1] is reported as 100%, the “inhibition of higher virus loads” value ([1]; more than approximately 20 infectious units) is reported as “not inhibited” and the IC50 [2] is reported as “about 5 μg/ml”. For the same substance, the IC100 [2] was “about 11.5 μg/ml”, the inhibition of virus [3] was “no inhibition” and the inhibition of virus [4] was “no inhibition”. The body weight ([5]; CD-1 athymic nude male mice, spinosad in DMSO i.p., on top of weight loss by DMSO alone) was “some weight loss”, the “% difference of tumor volume day 21 vs day1” value (“% difference” for short) ([5]; mouse code 3, total spinosad dosed 390 mg/kg) was −42% and the “tumor volume on day 21” value [5, 21] was 107.7 mm^3. For the same substance, the “tumor volume on day1” value [5, 21] was 184.7 mm^3, the “% difference” value ([5]; mouse code 6, total spinosad dosed 360 mg/kg) was −2% and the “tumor volume on day 21” value [5, 22] was 254.7 mm^3. For the same substance, the “tumor volume on day1” value [5, 22] was 260.6 mm^3, the “% difference” value ([5]; mouse code 9, total spinosad dosed 540 mg/kg) was −33% and the “tumor volume on day 21” value [5, 23] was 119.8 mm^3. The “tumor volume on day1” value [5, 23] was 179.9 mm^3, the “% difference” value ([5]; mouse code 10, total spinosad dosed 540 mg/kg) was −44% and the “tumor volume on day 21” value [5, 24] was 128.9 mm^3. The “tumor volume on day1” value [5, 24] was 228.9 mm^3, the “% difference” value ([5]; mouse code 12, total spinosad dosed 615 mg/kg) was −11% and the “tumor volume on day 21” value [5, 25] was 142.1 mm^3. For the same substance, the “tumor volume on day1” value [5, 25] was 159.4 mm^3, the “% difference” value ([5]; mouse code 13, total spinosad dosed 585 mg/kg) was 6% and the “tumor volume on day 21” value [5, 26] was 246.5 mm^3. For the same substance, the “tumor volume on day1” value [5, 26] was 233.3 mm^3, the mean volume change ([5]; spinosad treated group (6 mice), total 360-615 mg/kg i.p. over 20 days, day 21 vs day1, DMSO control 54%, P < 0.02) was −21% and the “mean tumor volume decreased by” value ([5]; spinosad treated group, 21st day, control/DMSO group increased 54%, P-value <0.02) was 21%. For the same substance, the ADP stimulation ([6]; 20 μg of spinosad) was “slight increase”, the “spinosad concentration above which mitochondrial integrity is reduced” value ([6]; succinate substrate) was “above 40 μg/mL” and the “State III respiration (numerator of RCR)” value [6, 27] was 711. For the same substance, the “State IV respiration (denominator of RCR)” value (shortened to “State IV respiration”) [6, 27] was 300, the “State III respiration (numerator of RCR)” value [6, 28] was 726 and the “State IV respiration” value [6, 28] was 330. For the same substance, the “State III respiration (numerator of RCR)” value [6, 29] was 666, the “State IV respiration” value [6, 29] was 430 and the “State III respiration (numerator of RCR)” value [6, 30] was 598. The “State IV respiration” value [6, 30] was 500, the CC50 [7] was 42.6 ± 17.3 µM and the “Calculated LC50” value [8, 31] was 11.1 µg/mL. For the same substance, the “Calculated LC100” value [8, 31] was 31.6 µg/mL, the “Cell Survival (% of Control; mean ± S.D.)” value ([8]; BxPC-3, spinosad 10 μg/mL) was 54.1 ± 9.8 % of Control and the “Cell Survival (% of Control; mean ± S.D.)” value ([8]; BxPC-3, spinosad 20 μg/mL) was 25.5 ± 2.6 % of Control. For the same substance, the “Cell Survival (% of Control; mean ± S.D.)” value ([8]; BxPC-3, spinosad 30 μg/mL) was 5.3 ± 2.6 % of Control, the “Calculated LC50” value [9, 32] was 12.5 µg/mL and the “Calculated LC100” value [9, 32] was 32.8 µg/mL. For the same substance, the “Cell Survival (% of Control; mean ± S.D.)” value ([9]; DU 145, spinosad 10 μg/mL) was 56.8 ± 3.1 % of Control, the “Cell Survival (% of Control; mean ± S.D.)” value ([9]; DU 145, spinosad 20 μg/mL) was 30.2 ± 4.5 % of Control and the “Cell Survival (% of Control; mean ± S.D.)” value ([9]; DU 145, spinosad 30 μg/mL) was 7.6 ± 4.1 % of Control. For the same substance, the “Calculated LC50” value [10, 33] was 13.3 µg/mL, the “Calculated LC100” value [10, 33] was 34.2 µg/mL and the “Cell Survival (% of Control; mean ± S.D.)” value ([10]; PC-3, spinosad 10 μg/mL) was 53.8 ± 8.0 % of Control. The “Cell Survival (% of Control; mean ± S.D.)” value ([10]; PC-3, spinosad 20 μg/mL) was 42.0 ± 9.5 % of Control, the “Cell Survival (% of Control; mean ± S.D.)” value ([10]; PC-3, spinosad 30 μg/mL) was 5.9 ± 2.5 % of Control and the “Calculated LC50” value [11, 34] was 13.4 µg/mL. For the same substance, the “Calculated LC100” value [11, 34] was 36.7 µg/mL, the “Cell Survival (% of Control; mean ± S.D.)” value ([11]; MDA-MB-231, spinosad 10 μg/mL) was 56.1 ± 13.7 % of Control and the “Cell Survival (% of Control; mean ± S.D.)” value ([11]; MDA-MB-231, spinosad 20 μg/mL) was 38.0 ± 5.7 % of Control. For the same substance, the “Cell Survival (% of Control; mean ± S.D.)” value ([11]; MDA-MB-231, spinosad 30 μg/mL) was 13.2 ± 1.4 % of Control, the “Cell Number Doubling Time” value ([12]; PC-3, spinosad 5 μg/mL) was 4.17 days and the “Cell Number Doubling Time” value ([12]; PC-3, spinosad 10 μg/mL) was 5.55 days. For the same substance, the “Cell Number Doubling Time” value ([12]; PC-3, spinosad 15 μg/mL) was 6.24 days, the “Cell Number Doubling Time” value ([13]; BxPC-3, spinosad 5 μg/mL) was 3.86 days and the “Cell Number Doubling Time” value ([13]; BxPC-3, spinosad 10 μg/mL) was 4.76 days. The “Cell Number Doubling Time” value ([13]; BxPC-3, spinosad 15 μg/mL) was 6.25 days, the “Cell Number Doubling Time” value ([14]; DU 145, spinosad 5 μg/mL) was 2.89 days and the “Cell Number Doubling Time” value ([14]; DU 145, spinosad 10 μg/mL) was 2.83 days. For the same substance, the “Cell Number Doubling Time” value ([14]; DU 145, spinosad 15 μg/mL) was 3.18 days, the “cell number doubling time from 3 days post-treatment increased by” value ([14]; high dose level 15 μg/mL, DU 145) was “approximately 46.5%” and the “Cell Number Doubling Time” value ([15]; MDA-MB-231, spinosad 5 μg/mL) was 3.99 days. For the same substance, the “Cell Number Doubling Time” value ([15]; MDA-MB-231, spinosad 10 μg/mL) was 5.09 days, the “Cell Number Doubling Time” value ([15]; MDA-MB-231, spinosad 15 μg/mL) was 7.13 days and the “cell number doubling time from 3 days post-treatment increased by” value ([15]; high dose level 15 μg/mL, MDA-MB-231) was “approximately 129.3%”. For the same substance, the IC50 [16] was 9.5 ± 3.8 µM, the “cell number doubling time from 3 days post-treatment increased by” value [17] was 27.8-33.2% and the inhibition of virus [18] was “no inhibition”. The “activity against rings versus trophozoites” value [19] was “same activity against both rings and trophozoites”, the “reduction in the number of Plasmodium vinckei parasites” value (Plasmodium vinckei) was 70% and the IC50 [20] was 9 ± 3 µM. For the same substance, the “ATP levels in the parasite” value (Plasmodium falciparum; albumin-containing medium (RPMI-1640), within erythrocytes and after isolation, spinosad 5-10 μg/ml in DMSO) was “reduces” and the “ATP levels in the parasite” value (Plasmodium falciparum; isolated parasites in saline/spinosad medium (absence of albumin)) was “unaffected”.
